# In patent US10300091B2, “Sustained release angiogenesis modulating compositions and methods for induction and modulation of angiogenesis” (University of Florida Research Foundation, Inc., priority 2013, dated 2019):
# Test system: HUVEC
# Experiment: Screening of TSP-1 in hPE-based angiogenesis assay
# Format: cell-based, human
# Experimental: Unless otherwise stated, 32 μl of placental extract was thawed and pipetted into each well of a 96 well plate. The extract was evenly coated onto the bottom of each well using an orbital shaker at 30 RPM for 1 minute. The coated plate was then incubated at 37° C. for 30 minutes. HUVEC were then plating by direct pipetting at 20000 cells/cm^2, 40000 cells/cm^2, or 80000 cells/cm^2. Multiple time points were investigated at each concentration including at days 1, 3, and 5. Thrombospondin-1 was tested as an angiogenesis inhibiting drug using final concentrations 0, 5, 10, 20, and 35 μg/μL diluted in endothelial cell media
# Network formation was analyzed after staining at a concentration of 2 μg/mL Calcein AM (Invitrogen-Life Technologies, NY, USA) with Endothelial cell culture media. In a dark room, dyed cells were incubated at 37° C., 5% CO2 for 30 minutes, and then images were taken using a Zeiss Axiovert 200 inverted Fluorescence microscope (Zeiss, Thornwood, N.Y.). Images were analyzed to determine the tubule length, tubule width, branch points, and other meshwork characterizations using ImageJ 1.45s (NIH, Bethesda, Md.). Branch points were assigned manually as the positions at every node where branches meet or tubules sprout, and tubule length was assessed by determining the curve length from branch point to connected branch point. Tubule width measurements were carried out in three different zones per tubule, with two zones each 10 μm from the start and end and one zone in the middle of the curve length. The percent area of coverage was determined by processing the images using the imageJ function “binary>>convert to mask” followed by measurement of the “mean.” In TSP-1 experiments, final values were normalized to no dose samples, calculated as the percentage of “1” values relative to the total count of pixel values, and given as “% area coverage”.
substance,measurement,setting,value
TSP-1: glycoprotein with potent inhibition activity on neovascularization; model anti-angiogenic drug,angiogenic network formation with TSP-1,"HUVEC on hPE treated plates, 1 d of culture",significantly reduced angiogenic network formation
same,total tubule-length and branch points as a function of TSP-1 concentration,"hPE-coated plates, 0-35 μg/μL TSP-1",decrease linearly
same,effect of TSP-1 on control HUVECs,"seeded directly onto uncoated tissue culture plates, 1 d",not affected
